Test results published in patent US20050124579A1, “Benzyl alcohol derivatives” (priority 2002, published 2005).
In brackets after ≈: the same amount, converted by molar mass.

Legend:
[1] = test system: Escherichia coli NCTC 8196; experiment: Determination of the minimum inhibition concentration (MIC value) in microtitre plates; type: cell-based; design: unit not given here; conditions: CASO broth, 37° C., 48 hours, optical density at 620 nm; MIC = <20% growth vs growth control
From the text: (§1) Determination of the Minimum Inhibition Concentration (MIC Value) in Microtitre Plates Nutrient Medium: Casein-soy flour-peptone broth for the preparation of the precultures of the test bacteria and yeast. Examples of Test Microbes: Bacteria: Staphylococcus aureus ATCC 6538 • Escherichia coli NCTC 8196 (=EC) Procedure: The test substances are predissolved in dimethyl sulphoxide (DMSO) and tested in a dilution series of 1:2. The bacteria are cultivated overnight in CASO broth and sponged off with 10 ml of 0.85% sodium chloride solution (+0.1% TritonX-100). All of the test microbes are adjusted to a microbial count of 1-5×10^6 CFU/ml with 0.85% sodium chloride solution. The test substances are prepipetted at 8 μl per well into microtitre plates. Prediluted microbial suspensions are diluted 1:100 in CASO broth and added at 192 μl per well to the test substances. The test mixtures are incubated at 37° C. for 48 hours. After incubation, the growth is determined by reference to the clouding of the test mixtures (optical density) at 620 nm in a microplate reader. The minimum inhibition concentration (MIC value) is the concentration of substance at which (compared with the growth control) a significant growth inhibition (<20% growth) of the test microbes is established. One microtitre plate is prepared per test microbe and substance concentration. All of the substances are tested in duplicate.

[2] = test system: Staphylococcus aureus ATCC 6538; experiment: as above; type: cell-based; conditions: CASO broth, 37° C., 48 hours, optical density at 620 nm, MIC = <20% growth vs growth control
From the text: as §1

Row | SMILES | MIC Escherichia coli [1] | MIC Staphylococcus aureus [2] [ppm] | MIC ([2]; Staphylococcus aureus, ATCC6538) [µg/mL]
1 | CCCCCCCCOc1ccccc1CO [(5)] | >120 | 60 | 
2 | CCC(CC)Oc1ccccc1CO [(6)] | >120 | 120 | 
3 | CCCCCC(C)Oc1ccccc1CO (stereo not drawn) [(7)] | >120 | 120 | 
4 | C[Si](C)(C)CCCOc1ccc(CO)cc1 [(8)] | 60 | 60 | 
5 | COCCOCCOc1ccc(CO)cc1 [(9)] | 60 | 30 | 
6 | CCCCCCOc1ccc(CO)cc1 [(10)] | 60 | 120 | 
7 | CCCCCCCCOc1ccc(CO)cc1 [(11)] | 15 |  | 15 (≈ 63.5 µM)
8 | C[Si](C)(COc1cccc(CO)c1)c1ccccc1 [(13)] | >120 | 60 | 
9 | CCCCCCCCOc1cccc(CO)c1 [(14)] | 30 | 15 | 
10 | CCCCCC(C)Oc1cccc(CO)c1 (stereo not drawn) [(15)] | 120 | 120 | 
11 | CCCCCCCCOc1cccc(OC)c1CO [(26)] | 15 | 15 | 
12 | CCCCCCCCOc1c(CO)cccc1OC [(27)] | 60 | 30 | 
13 | CCCCCCCCOc1ccc(CO)cc1OC [(28)] | 30 | 30 | 
14 | C=CC[Si](C)(C)COc1ccc(CO)cc1OC[Si](C)(C)CC=C [(29)] | >120 | 120 | 
15 | CCCCCCCCOc1ccc(CO)cc1OCCCCCCCC [(30)] | 60 | 60 | 
16 | CCCCCCCCCCCCOc1ccc(CO)cc1OCCCCCCCCCCCC [(31)] | >120 | 120 | 
17 | CCCCCCCCCCCCOc1ccc(CO)c(OCCCCCCCCCCCC)c1 [(32)] | >120 | 60 | 
18 | OCc1ccc(OC2CCCCC2)cc1OC1CCCCC1 [(33)] | >120 | 15 | 
19 | CCCCCCCCOc1ccc(OCCCCCCCC)c(CO)c1 [(34)] | 60 | 120 | 
20 | CCCCCCCCCCCCOc1ccc(OCCCCCCCCCCCC)c(CO)c1 [(35)] | 120 | 60 | 

Second part, the compound after the results:

Row | MIC Escherichia coli [1] | MIC Staphylococcus aureus [2] [ppm] | MIC ([2]; Staphylococcus aureus, ATCC6538) [µg/mL] | SMILES
21 | >120 | 60 |  | C[Si](C)(C)CCCOc1ccccc1CO [(3)]
22 | >120 | 120 |  | C[Si](C)(C)COc1ccccc1CO [(4)]
23 | 60 | 60 |  | C[Si](C)(C)CCCOc1cccc(CO)c1 [(12)]
24 | >120 | 15 |  | COc1ccc(OCCC[Si](C)(C)C)c(CO)c1 [(16)]
25 | 60 | 60 |  | COc1ccc(OC[Si](C)(C)C)c(CO)c1 [(17)]
26 | 60 | 120 |  | COc1ccc(OCCOc2ccccc2)c(CO)c1 [(18)]
27 | 60 | 120 |  | CCCCOc1ccc(OC)cc1CO [(19)]
28 | 60 | 60 |  | CCCCCCOc1ccc(OC)cc1CO [(20)]
29 | 30 | 30 |  | CCCCCCCCOc1ccc(OC)cc1CO [(21)]
30 | 60 | 60 |  | CCC(CC)Oc1ccc(OC)cc1CO [(22)]
31 | 60 | 60 |  | CCCCCC(C)Oc1ccc(OC)cc1CO (stereo not drawn) [(23)]
32 | 60 | 60 |  | COc1ccc(OC2CCCCC2)c(CO)c1 [(24)]
33 | 120 | 120 |  | COc1ccc(OCc2ccccc2)c(CO)c1 [(25)]
